Test results from patent US9686984B2, “Macrocyclic picolinamides as fungicides” (DOW AGROSCIENCES LLC, priority 2014, dated 2017).

Key:
Type in all cases: in vivo
Cercospora beticola = test: Leaf Spot of Sugar Beets (CERCBE) disease control; conditions: 100 ppm, 1 Day Protectant
Experimental: Technical grades of materials were dissolved in acetone, which were then mixed with nine volumes of water containing 110 ppm Triton X-100. The fungicide solutions were applied onto wheat seedlings using an automated booth sprayer to run-off. All sprayed plants were allowed to air dry prior to further handling. All fungicides were evaluated using the aforementioned method for their activity vs. all target diseases, unless stated otherwise. Wheat leaf blotch and brown rust activity were also evaluated using track spray applications, in which case the fungicides were formulated as EC formulations, containing 0.1% Trycol 5941 in the spray solutions. Wheat plants (variety Yuma) were grown from seed in a greenhouse in 50% mineral soil/50% soil-less Metro mix until the first leaf was fully emerged, with 7-10 seedlings per pot. These plants were inoculated with an aqueous spore suspension of Septoria tritici either prior to or after fungicide treatments. After inoculation the plants were kept in 100% relative humidity (one day in a dark dew chamber followed by two to three days in a lighted dew chamber at 20° C.) to permit spores to germinate and infect the leaf. The plants were then transferred to a greenhouse set at 20° C. for disease to develop. When disease symptoms were fully expressed on the 1st leaves of untreated plants, infection levels were assessed on a scale of 0 to 100 percent disease severity. Percent disease control was calculated using the ratio of disease severity on treated plants relative to untreated plants. Example G: Evaluation of Fungicidal Activity: Leaf Spot of Sugar Beets (Cercospora Beticola; Bayer Code CERCBE) Sugar beet plants (variety HH88) were grown in soil-less Metro mix and trimmed regularly to maintain a uniform plant size prior to test. Plants were inoculated with a spore suspension 24 hr after fungicide treatments. Inoculated plants were kept in a dew chamber at 22° C. for 48 hr then incubated in a greenhouse set at 24° C. under a clear plastic hood with bottom ventilation until disease symptoms were fully expressed. […]

[1] = test system: Blumeria graminis f. sp. hordei; test: Barley Powdery Mildew (ERYSGH) disease control; conditions: 100 ppm, 1 Day Protectant
Experimental: Technical grades of materials were dissolved in acetone, which were then mixed with nine volumes of water containing 110 ppm Triton X-100. The fungicide solutions were applied onto wheat seedlings using an automated booth sprayer to run-off. All sprayed plants were allowed to air dry prior to further handling. All fungicides were evaluated using the aforementioned method for their activity vs. all target diseases, unless stated otherwise. Wheat leaf blotch and brown rust activity were also evaluated using track spray applications, in which case the fungicides were formulated as EC formulations, containing 0.1% Trycol 5941 in the spray solutions. Wheat plants (variety Yuma) were grown from seed in a greenhouse in 50% mineral soil/50% soil-less Metro mix until the first leaf was fully emerged, with 7-10 seedlings per pot. These plants were inoculated with an aqueous spore suspension of Septoria tritici either prior to or after fungicide treatments. After inoculation the plants were kept in 100% relative humidity (one day in a dark dew chamber followed by two to three days in a lighted dew chamber at 20° C.) to permit spores to germinate and infect the leaf. The plants were then transferred to a greenhouse set at 20° C. for disease to develop. When disease symptoms were fully expressed on the 1st leaves of untreated plants, infection levels were assessed on a scale of 0 to 100 percent disease severity. Percent disease control was calculated using the ratio of disease severity on treated plants relative to untreated plants. Example J: Evaluation of Fungicidal Activity: Barley Powdery Mildew (Blumeria graminis f. sp. hordei; Synonym: Erysiphe graminis f. sp. hordei; Bayer Code […]) Barley seedlings (variety Harrington) were propagated in soil-less Metro mix, with each pot having 8 to 12 plants, and used in the test when first leaf was fully emerged. Test plants were inoculated by dusting with infected stock plants 24 hr after fungicide treatments. After inoculation the plants were kept in a greenhouse set at 20° C. for disease to develop. […]

Rhyncosporium secalis = test: Barley Scald (RHYNSE) disease control; conditions: 100 ppm, 1 Day Protectant
Experimental: Technical grades of materials were dissolved in acetone, which were then mixed with nine volumes of water containing 110 ppm Triton X-100. The fungicide solutions were applied onto wheat seedlings using an automated booth sprayer to run-off. All sprayed plants were allowed to air dry prior to further handling. All fungicides were evaluated using the aforementioned method for their activity vs. all target diseases, unless stated otherwise. Wheat leaf blotch and brown rust activity were also evaluated using track spray applications, in which case the fungicides were formulated as EC formulations, containing 0.1% Trycol 5941 in the spray solutions. Wheat plants (variety Yuma) were grown from seed in a greenhouse in 50% mineral soil/50% soil-less Metro mix until the first leaf was fully emerged, with 7-10 seedlings per pot. These plants were inoculated with an aqueous spore suspension of Septoria tritici either prior to or after fungicide treatments. After inoculation the plants were kept in 100% relative humidity (one day in a dark dew chamber followed by two to three days in a lighted dew chamber at 20° C.) to permit spores to germinate and infect the leaf. The plants were then transferred to a greenhouse set at 20° C. for disease to develop. When disease symptoms were fully expressed on the 1st leaves of untreated plants, infection levels were assessed on a scale of 0 to 100 percent disease severity. Percent disease control was calculated using the ratio of disease severity on treated plants relative to untreated plants. Example K: Evaluation of Fungicidal Activity: Barley Scald (Rhyncosporium secalis; Bayer Code […]) Barley seedlings (variety Harrington) were propagated in soil-less Metro mix, with each pot having 8 to 12 plants, and used in the test when first leaf was fully emerged. Test plants were inoculated by an aqueous spore suspension of Rhyncosporium secalis 24 hr after fungicide treatments. After inoculation the plants were kept in a dew room at 20° C. with 100% relative humidity for 48 hr. […]

Venturia inaequalis = test: Apple Scab (VENTIN) disease control; conditions: 100 ppm, 1 Day Protectant
Uncinula necator = test: Grape Powdery Mildew (UNCINE) disease control; conditions: 100 ppm, 1 Day Protectant
Phakopsora pachyrhizi = test: Asian Soybean Rust (PHAKPA) disease control; conditions: 25 ppm
Experimental: Example H: Evaluation of Fungicidal Activity: Asian Soybean Rust (Phakopsora pachyrhizi; Bayer Code […]) Technical grades of materials were dissolved in acetone, which were then mixed with nine volumes of water containing 0.011% Tween 20. The fungicide solutions were applied onto soybean seedlings using an automated booth sprayer to run-off. All sprayed plants were allowed to air dry prior to further handling. Soybean plants (variety Williams 82) were grown in soil-less Metro mix, with one plant per pot. Two weeks old seedlings were used for testing. Plants were inoculated either 3 days prior to or 1 day after fungicide treatments. Plants were incubated for 24 h in a dark dew room at 22° C. and 100% relative humidity then transferred to a growth room at 23° C. for disease to develop. Disease severity was assessed on the sprayed leaves.

SMILES	CERCBE disease control, 1DP (Cercospora beticola)	ERYSGH disease control, 1DP [1]	RHYNSE disease control, 1DP (Rhyncosporium secalis)	VENTIN disease control, 1DP (Venturia inaequalis)	UNCINE disease control, 1DP (Uncinula necator)	PHAKPA disease control, 1DP (Phakopsora pachyrhizi; 1 Day Protectant)	PHAKPA disease control, 3DC (Phakopsora pachyrhizi; 3 Day Curative)
CCCC[C@H]1OCC[C@H](NC(=O)c2nccc(OC)c2OC(C)=O)C(=O)O[C@@H](C)[C@@H]1Cc1ccccc1 [Compound 2]	A (>70)	B (≦70)	A (>70)	–	–	–	–
COc1ccnc(C(=O)N[C@H]2CCO[C@H](Cc3ccccc3)[C@@H](Cc3ccccc3)[C@H](C)OC2=O)c1OC(C)=O [Compound 3]	A (>70)	B (≦70)	B (≦70)	–	–	–	–
CCC[C@H]1OCC[C@H](NC(=O)c2nccc(OC)c2OCOC(C)=O)C(=O)O[C@@H](C)[C@@H]1Cc1ccccc1 [Compound 17]	A (>70)	B (≦70)	B (≦70)	B (≦70)	A (>70)	A (>70)	A (>70)
